{
  "source": "patent US20050042209A1",
  "about": "“MUC1 extracellular domain and cancer treatment compositions and methods derived therefrom” (priority 2000, published 2005)",
  "key": {"[1]": {"tested_on": "MUC1 C-ter", "assay": "Expression of MUC1 C-ter with CHX", "assay_type": "cell-based, human"}, "[2]": {"tested_on": "cytochrome c release", "assay": "Cytochrome c release (immunoblot) in ZR-75-1 cells", "assay_type": "cell-based, human", "conditions": "ZR-75-1/vector cells compared to ZR-75-1/MUC1siRNA cells", "experimental": "Immunoblot analysis: Lysates were prepared from cells as described (Li et al., 2001]. Equal amounts of protein were separated by SDS-PAGE and transferred with anti-cytochrome c (BD PharMingen, San Diego, Calif.). The immunocomplexes were detected with horseradish peroxidase-conjugated secondary antibodies and enhanced chemiluminescence (ECL, Amersham Biosciences, Piscataway, N.J.). Intensity of the signals was determined by densiometric scanning.\n(§1) As a control, stable transfection of ZR-75-1 cells with the empty reterovirus had no effect on MUC1 expression. […] By contrast, CDDP treatment of ZR-75-1/MUC1siRNA cells was associated with a clear loss of ΔΨm. In concert with these findings, cytochrome C release, as measured by immunoblot, was attenuated in CDDP-treated ZR-75-1/vector cells, as compared to ZR-75-1/MUC1siRNA cells. […] Treatment of ZR-75-1/vector cells with CDDP was associated with the induction of approximately 25% apoptosis."}, "[3]": {"tested_on": "ZR-75-1 breast carcinoma cells", "assay": "Apoptosis assay (sub-G1 DNA) in ZR-75-1 cells", "assay_type": "cell-based, human", "experimental": "Apoptosis assay: Apoptotic cells were quantified by analysis of sub-G1 DNA. Cells were harvested, washed with PBS, fixed with 80% ethanol, and incubated in PBS containing 20 ng/ml RNase (Roche) for 60 min at 37° C. Cells were stained with 40 μg/ml propidium iodide (Sigma) for 30 min at room temperature in the dark. DNA content was analyzed by flow cytometry (EPICS XL-MCL, Coulter Corp.).\nas §1"}, "[4]": {"tested_on": "HCT116 cells", "assay": "Apoptosis (sub-G1 DNA, TUNEL) in HCT116 transfectants", "assay_type": "cell-based, human", "conditions": "FIG. 15", "experimental": "Methods. Apoptotic cells were quantified by analysis of sub-G1 DNA and TUNEL staining. To assess sub-G1 DNA content, cells were harvested, washed with PBS, fixed with 80% ethanol, and incubated in PBS containing 20 ng/ml RNase (Roche) for 60 min at 37° C. Cells were then stained with […] propidium iodide (Sigma) for 30 min at room temperature in the dark. DNA content was analyzed by flow cytometry (EPICS XL-MCL, Coulter Corp.). Apoptotic cells with DNA fragmentation were detected by staining with the In Situ cell death detection kit (TUNEL; Roche Applied Science) and visualized by confocal microscopy (ZEISS LSM510). After staining, cells were analyzed by flow cytometry. Other experimental procedures and methods were as described in Example 15.\nResults. To determine if MUC1 affects the induction of apoptosis by CDDP, cells were analyzed for sub-G1 DNA content. […] Stimulation of cell surface death receptors with TNF-α or the TNF-related apoptosis inducing factor TRAIL is associated with activation of the extrinsic apoptotic pathway. To determine if MUC1 affects death receptor-induced apoptosis, HCT116 cells were treated with TNF-α."}, "[5]": {"tested_on": "intrinsic apoptotic pathway", "assay": "Release of mitochondrial factors and caspase-3 activation in HCT116 transfectants", "assay_type": "cell-based, human", "experimental": "Methods. Experimental procedures and methods were as described in Example 15.\n(§2) Results. Treatment of cells with DNA-damaging agents is associated with release of mitochondrial cytochrome c and activation of the intrinsic apoptotic pathway. To determine if mitochondrial localization of the MUC1 C-ter affects cytochrome c release, the HCT116 transfectants were treated with cisplatin (CDDP). […] Release of cytochrome c in the response to genotoxic stress is associated with activation of caspase-3 and cleavage of PKCδ (Emoto et al., 1995). To assess the effects of MUC1 on caspase-3 activation, CDDP-treated cells were analyzed for cleavage of pro-caspase-3. […] Smac/DIABLO is a mitochondrial protein that induces caspase-dependent cell death by interacting with inhibitor of apoptosis proteins (IAPs) and blocking their caspase inhibitory activity (Du et al., 2000; Verhagen et al., 2000). To determine if MUC1 attenuates release of Smac/DIABLO, HCT116/vector, HCT116/MUC1 and HCT116/MUC(Y46F) cells were treated with CDDP for 24, 48 and 72 h, and cytosolic lysates were subjected to immunoblot analysis. […] CDDP treatment of HCT116/vector and HCT116/MUC1(Y46F) cells for 72 h was associated with>90% cell death and decreases in the β-actin signals used as a control for loading. By contrast, treatment of HCT116/MUC1 cells with CDDP for 72 h was associated with cessation of cell growth and<30% cell death. These findings indicate that mitochondrial localization of MUC1 C-ter attenuates DNA damage-induced activation of the intrinsic apoptotic pathway."}, "[6]": {"tested_on": "ZR-75-1 tumors", "assay": "ZR-75-1 tumor growth in nude mice", "assay_type": "in vivo", "conditions": "7 mg/Kg CDDP intraperitoneal, FIG. 12", "experimental": "FIG. 12: Summary of data showing that MUC1 confers resistance to CDDP in vivo. ZR-75-1/vector cells (∘, ●) or ZR-75-1/MUC1siRNA (¤, ▪) cells (1×10^7) were injected into nude mice that had been pretreated with β-estradiol. The mice were treated as indicated (arrows) with intraperitoneal injections of PBS (¤, ∘) or 7 mg/Kg CDDP (●, ▪). The results are expressed as the tumor volume (mean±S.D>of 4-8 mice per group.\nTo determine if knocking-down MUC1 affects chemosensitivity in vivo, mice were injected with ZR-75-1 cells stably expressing the empty viral vector or MUCsiRNA."}, "[7]": {"tested_on": "MUC1", "assay": "MUC1 induction by oxidative and genotoxic stress (immunoblot)", "conditions": "available evidence; cells not given", "experimental": "To determine whether MUC1 is induced in response to oxidative stress, MCF-7 cells were treated with hydrogen peroxide. Cell lysates were analyzed by immunoblotting with anti-DF3/MUC1 antibody. Lysates were prepared by suspending MCF-7 cells in lysis buffer (50 mM Tris, pH 7.6, 150 mM NaCl, 1 mM PMSF, 3 mM NaF, 1 mM sodium vandate, 1 mM DTT with protease inhibitors and either 1% NP-40 or 1% Brij-96) for 30 min. on ice. Lysates were cleared by centifugation and equal amounts of proteins were resolved by SDS-PAGE. Proteins were then transferred to nitrocellulose filters, blocked by incubation in 5% non-fat dry milk in PBS with 0.05% Tween-20 and probed with anti-MUC1 antibody (Pandey et al., 1995). Anti-actin was used as a control.\nSimilar studies were performed with genotoxic agents."}, "[8]": {"tested_on": "HCT116 cells", "assay": "Cell death of HCT116 transfectants", "assay_type": "cell-based, human", "conditions": "72 h", "experimental": "as §2, with “These findings indicate that mitochondrial localization of MUC1 C-ter attenuates DNA damage-induced activation of the intrinsic apoptotic pathway.” left out"}, "[9]": {"tested_on": "ZR-75-1 breast carcinoma cells", "assay": "Mitochondrial transmembrane potential in ZR-75-1 cells", "assay_type": "cell-based, human", "experimental": "Analysis of mitochondrial transmembrane potential: Cells were incubated with 0.5 nM 3,3-dihexyloxocarbocyanine iodide (DiOC6[3]; Molecular Probes) for 30 min and analyzed by flow cytometry as described (Shapiro, 2000).\nas §1"}, "[10]": {"tested_on": "MUC1 C-ter", "assay": "Mitochondrial localization of MUC1 C-ter (immunoblot of mitochondrial fractions)", "assay_type": "cell-based, human", "conditions": "HCT116/MUC1 or HCT116/MUC1(Y46F) cells; EGF 10 ng/ml", "experimental": "Cell culture. Human HCT116 colon carcinoma cells (ATCC, Manassas, Va.) were cultured in Dulbecco's modified Eagle's medium/F12 with 10% heat-inactivated fetal bovine serum, 100 units/ml penicillin, […] streptomycin and 2 mM L-glutamine.\nCell transfections. HCT116 cells were transfected with pIRES-puro2, pIRESpuro2-MUC1 or pIRES-puro2-MUC1(Y46F) as described (Li et al., 2001a). SW480 cells were transfected with pIRES-puro2 or pIRES-puro2-MUC1. Stable transfectants were selected in the presence of 0.4 mg/ml puromycin (Calbiochem-Novabiochem, San Diego, Calif.). Two independent transfections were performed for each vector.\nImmunoblot analysis. Lysates were prepared from subconfluent cells as described (Li et al., 2001a). Equal amounts of protein were separated by SDS-PAGE and transferred to nitrocellulose membranes. […] The immunocomplexes were detected with horseradish peroxidase-conjugated secondary antibodies and enhanced chemiluminescence (ECL, Amersham Biosciences, Piscataway, N.J.). Intensity of the signals was determined by densitometric scanning. […]\nTo extend these findings, MUC1 C-ter was expressed with a GFP tag at the N-terminus and assessed mitochondrial localization. […]"}, "[11]": {"tested_on": "intracellular ROS", "conditions": "MCF-7 cells, compared to control", "method": "Measurement of ROS levels: Cells were incubated with 10 mM DCF-DA Sigma) for 15 min. at 37° C. to assess ROS-mediated oxidation of the fluorescent compound DCF (LeBel et al., 1992). Fluorescence of oxidized DCF was measured at an excitation wavelength of 480 nm and an emission wavelength of 525 nm using a flow cytometer (Beckton Dickerson, Lincoln Park, N.J.).\nAs a control, cells were incubated with NAC, a scavenger of ROS."}, "[12]": {"tested_on": "β-actin", "assay": "β-actin expression after CDDO", "conditions": "5 μM", "method": "(§3) Immunoblot analysis: Cells were lysed in ice-cold lysis buffer (20 mM Tris-HCl, pH 8.0, 150 mM NaCl, 1% Triton-X-100, 1 mM phenylsulfonyl fluoride, 1 mM DTT, 10 μgm/ml aprotinin) for 30 min. Lysates were cleared by centrifugation for 20 min. at 4° C. as described (Yin et al, 2001). Proteins were separated by SDS-PAGE, transferred to nitrocellulose and probed with anti-DF3/MUC1 (Kufe, U.S. Pat. No. 5,506,34) or anti-β-actin (Sigma). The antigen-antibody complexes were visualized by enhanced chemiluminescence (ECL; Amersham Life Sciences)."}, "[13]": {"tested_on": "MUC1", "conditions": "MUC1-positive cells", "method": "Cell Culture: Human MCF-7 breast carcinoma and HeLa cervical carcinoma cella (obtained form the ATCC, Manassas, Va.) were grown in DMEM (high glucose; Mediatech, Cellgrow) supplemented with 10% heat-inactivated fetal calf serum (FCS) and 2 mM L-glutamate.\nas §3\nCDDO downregulates MUC1 expression: MUC1-positive cells were treated with CDDO at concentrations of 1, 3 and 5 μM."}, "[14]": {"tested_on": "MUC1 transcripts", "conditions": "MCF-7 cells", "method": "Reverse transcription-polymerase chain reaction (RT-PCR): Total cellular RNA was extracted in Triazol, dissolved in RNAase-free water and incubated for 10 min. at 55° C. MUC1-specific primers (5′-[sequence]-3′ and 3′-[sequence]-5′) were designed to span a region within the genomic DNA that contains two introns and result in amplification of a 489-bp fragment from RNA and a 783-bp fragment from genomic DNA. RNA-specific primers for human β-actin were used as a control. The RNA was reverse transcribed and amplified using SuperScript One-Step RT-PCR with Platinum Taq (GIBCO-BRL Gaithersburg, Md.). Amplified fragments were analyzed by electrophoresis in 2% agarose gels.\nTo determine whether MUC1 expression is decreased at the mRNA level , RT-PCR was performed on MCF-7 cells treated with CDDO and the derivatives. […] Whereas CDDO induces apoptosis of diverse cell types, we assessed viability of MCF-7 cells under the same experimental conditions."}},
  "note": "Like-named read-outs stand apart in the source and are kept apart here.",
  "data": [
    {"compound": "C[C@@H]1C[C@@H]([C@H](O)CC2CC(=O)NC(=O)C2)C(=O)[C@@H](C)C1", "note": "[CHX, cycloheximide]", "values": [
      {"measurement": "expression of MUC1 C-ter", "setting": "[1]", "value": "no apparent effect"}
    ]},
    {"compound": "[NH2][Pt]([NH2])([Cl])[Cl]", "note": "[CDDP, cisplatin]", "values": [
      {"measurement": "cytochrome C release (immunoblot)", "setting": "[2]", "value": "attenuated"},
      {"measurement": "apoptosis", "setting": "[3]; ZR-75-1/MUC1siRNA cells", "value": "over 60%"},
      {"measurement": "apoptosis", "setting": "[3]; ZR-75-1/vector cells", "value": "approximately 25%"},
      {"measurement": "attenuation of CDDP-induced apoptosis", "setting": "[4]; HCT116/MUC1(Y46F) cells", "value": "not"},
      {"measurement": "CDDP-induced apoptosis", "setting": "[4]; HCT116/MUC1 cells", "value": "attenuated"},
      {"measurement": "apoptosis (sub-G1 DNA)", "setting": "[4]; HCT116/vector cells, 100 μM CDDP for 24 h", "value": "approximately 40%"},
      {"measurement": "release of Smac/DIABLO", "setting": "[5]; 24, 48 and 72 h, HCT116/MUC1 compared to HCT116/vector and HCT116/MUC1(Y46F) cells", "value": "attenuated"},
      {"measurement": "CDDP-induced cytochrome c release", "setting": "[5]; HCT116/MUC1(Y46F) cells", "value": "ineffective in blocking"},
      {"measurement": "release of cytochrome c", "setting": "[5]; HCT116/MUC1 cells", "value": "significantly attenuated"},
      {"measurement": "caspase-3-mediated cleavage of PKCδ", "setting": "[5]; HCT116/MUC1 compared to HCT116/vector and HCT116/MUC1(Y46F) cells", "value": "attenuated"},
      {"measurement": "CDDP-induced activation of caspase-3", "setting": "[5]; HCT116/MUC1 compared to HCT116/vector cells", "value": "attenuates"},
      {"measurement": "release of apoptosis-inducing factor (AIF)", "setting": "[5]; HCT116/MUC1 compared to vector or MUC1(Y46F) cells", "value": "attenuated release"},
      {"measurement": "cytosolic cytochrome c", "setting": "[5]; HCT116/vector cells", "value": "increased levels"},
      {"measurement": "sensitivity of tumors to treatment", "setting": "[6]; ZR-75-1/MUC1siRNA tumors", "value": "considerably more sensitive"},
      {"measurement": "tumor growth", "setting": "[6]; ZR-75-1/vector tumors", "value": "partial slowing"},
      {"measurement": "MUC1 induction by diverse cytotoxic agents", "setting": "[7]", "value": "induced"},
      {"measurement": "cell death", "setting": "[8]; HCT116/MUC1 cells", "value": "< 30", "unit": "%"},
      {"measurement": "cell death", "setting": "[8]; HCT116/vector and HCT116/MUC1(Y46F) cells", "value": "> 90", "unit": "%"},
      {"measurement": "mitochondrial transmembrane potential (ΔΨm)", "setting": "[9]; ZR-75-1/MUC1siRNA cells", "value": "clear loss"},
      {"measurement": "mitochondrial transmembrane potential (ΔΨm)", "setting": "[9]; ZR-75-1/vector cells", "value": "little if any decrease"}
    ]},
    {"compound": "EGF: EGF (10 ng/ml; Calbiochem-Novabiochem)", "values": [
      {"measurement": "mitochondrial targeting of MUC1 C-ter", "setting": "[10]", "value": "little effect"}
    ]},
    {"compound": "CC1(C)CC[C@]2(C(=O)O)CC[C@]3(C)[C@H](C(=O)C=C4[C@@]5(C)C=C(C#N)C(=O)C(C)(C)[C@@H]5CC[C@]43C)[C@@H]2C1", "note": "[CDDO]", "values": [
      {"measurement": "ROS (oxidation of DCF)", "setting": "[11]", "value": "detectable increases"},
      {"measurement": "β-actin gene expression", "setting": "[12]", "value": "no apparent effect"},
      {"measurement": "MUC1 protein (immunoblot)", "setting": "[13]; 5 μM", "value": "decreased levels"},
      {"measurement": "MUC1 protein (immunoblot)", "setting": "[13]; 1 or 3 μM at 24 hr", "value": "little if any effect"},
      {"measurement": "MUC1 transcripts (RT-PCR)", "setting": "[14]", "value": "decrease"}
    ]}
  ]
}
